ChEMBL document CHEMBL1201862, “PubChem BioAssay data set” (2004)
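Following 48 hours of exposure in 96-well plates, responses at five concentrations were used to interpolate endpoints linearly. Abbreviation: GI50, concentration required for 50% inhibition of growth.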 Activity calls are given as the source filed them. No stated cut-off is given here; in the data, active = GI50 up to about 1.1 µM and inactive = higher.

Tests used:
Assay in all cases: growth of human tumour cells (NCI), 48 h
DLD-1 = tested on: DLD-1
HL-60 = tested on: HL-60
HOP-62 = tested on: HOP-62
K562 = tested on: K562
KM12 = tested on: KM12
LOX IMVI = tested on: LOX IMVI
MOLT-4 = tested on: MOLT-4
NCI-H460 = tested on: NCI-H460
NCI-H522 = tested on: NCI-H522
OVCAR-3 = tested on: OVCAR-3
RPMI-8226 = tested on: RPMI-8226
SF-268 = tested on: SF-268
SF-295 = tested on: SF-295
SN12C = tested on: SN12C
SNB-19 = tested on: SNB-19
TK-10 = tested on: TK-10
UACC-62 = tested on: UACC-62
HCT-15 = tested on: HCT-15
A498 = tested on: A498
NCI/ADR-RES = tested on: NCI/ADR-RES

CCOc1ccc(/N=N/c2c(-c3ccccc3)nn(C(=O)CC(=O)Nc3ccccc3Cl)c2-c2ccccc2)cc1
GI50 (DLD-1): 45.2 µM (inactive)
GI50 (HL-60): 25.6 µM (inactive)
GI50 (HOP-62): 93.8 µM (inactive)
GI50 (K562): 30.2 µM (inactive)
GI50 (KM12): 46.1 µM (inactive)
GI50 (LOX IMVI): 42.2 µM (inactive)
GI50 (MOLT-4): 34.1 µM (inactive)
GI50 (NCI-H460): 46.5 µM (inactive)
GI50 (NCI-H522): 78 µM (inactive)
GI50 (OVCAR-3): 35.8 µM (inactive)
GI50 (RPMI-8226): 37.4 µM (inactive)
GI50 (SF-268): 39 µM (inactive)
GI50 (SF-295): 68.5 µM (inactive)
GI50 (SN12C): > 100 µM (inactive)
GI50 (SNB-19): > 100 µM (inactive)
GI50 (TK-10): 74.6 µM (inactive)
GI50 (UACC-62): 77.1 µM (inactive)

O=CC1=CCCN(CCc2c[nH]c3ccccc23)C1
GI50 (DLD-1): 53.5 µM (inactive)
GI50 (HCT-15): 21.7 µM
GI50 (HL-60): 11.2 µM (inactive)
GI50 (HOP-62): 52.6 µM (inactive)
GI50 (K562): 23.6 µM (inactive)
GI50 (KM12): 56.9 µM (inactive)
GI50 (LOX IMVI): 6.47 µM (inactive)
GI50 (MOLT-4): 13.2 µM (inactive)
GI50 (NCI-H460): 54.6 µM (inactive)
GI50 (NCI-H522): 69.3 µM (inactive)
GI50 (OVCAR-3): 42.6 µM (inactive)
GI50 (RPMI-8226): 37.2 µM (inactive)
GI50 (SF-268): 68.2 µM (inactive)
GI50 (SF-295): 57.3 µM (inactive)
GI50 (SN12C): 46.2 µM (inactive)
GI50 (SNB-19): 45.2 µM (inactive)
GI50 (TK-10): 76.6 µM (inactive)
GI50 (UACC-62): 58.3 µM (inactive)

O=C(Cc1nc2ccccc2s1)C(=O)Nc1ccccc1C(F)(F)F
GI50 (A498): > 100 µM (inactive)
GI50 (DLD-1): > 100 µM (inactive)
GI50 (HCT-15): > 100 µM
GI50 (HL-60): > 100 µM (inactive)
GI50 (HOP-62): > 100 µM (inactive)
GI50 (K562): > 100 µM (inactive)
GI50 (KM12): > 100 µM (inactive)
GI50 (LOX IMVI): > 100 µM (inactive)
GI50 (MOLT-4): > 100 µM (inactive)
GI50 (NCI-H460): > 100 µM (inactive)
GI50 (NCI-H522): > 100 µM (inactive)
GI50 (OVCAR-3): > 100 µM (inactive)
GI50 (SF-268): > 100 µM (inactive)
GI50 (SF-295): > 100 µM (inactive)
GI50 (SN12C): > 100 µM (inactive)
GI50 (SNB-19): > 100 µM (inactive)
GI50 (TK-10): > 100 µM (inactive)
GI50 (UACC-62): > 100 µM (inactive)

CCOC(=O)C1C(=O)C(C(=O)OCC)C(c2ccccc2)N(C)C1c1ccccc1 (stereo unspecified)
GI50 (A498): > 100 µM (inactive)
GI50 (DLD-1): > 100 µM (inactive)
GI50 (HCT-15): 82.4 µM
GI50 (HL-60): 38.7 µM (inactive)
GI50 (HOP-62): > 100 µM (inactive)
GI50 (K562): > 100 µM (inactive)
GI50 (KM12): > 100 µM (inactive)
GI50 (LOX IMVI): 33.9 µM (inactive)
GI50 (MOLT-4): 49.5 µM (inactive)
GI50 (NCI-H460): > 100 µM (inactive)
GI50 (NCI-H522): 49.9 µM (inactive)
GI50 (OVCAR-3): > 100 µM (inactive)
GI50 (SF-268): > 100 µM (inactive)
GI50 (SF-295): > 100 µM (inactive)
GI50 (SN12C): > 100 µM (inactive)
GI50 (SNB-19): > 100 µM (inactive)
GI50 (TK-10): > 100 µM (inactive)
GI50 (UACC-62): 65.6 µM (inactive)

CC(=O)OC1C/C(C)=C/CCC(C)/C=C/C2(C)CCC(C(C)(C)O)C12 (stereo unspecified)
GI50 (A498): > 100 µM (inactive)
GI50 (DLD-1): 45.1 µM (inactive)
GI50 (HCT-15): 43.9 µM
GI50 (HL-60): 24.2 µM (inactive)
GI50 (HOP-62): 88.1 µM (inactive)
GI50 (K562): 36.7 µM (inactive)
GI50 (KM12): 51.2 µM (inactive)
GI50 (LOX IMVI): 39.1 µM (inactive)
GI50 (MOLT-4): 30.4 µM (inactive)
GI50 (NCI-H460): 39.2 µM (inactive)
GI50 (OVCAR-3): 46.7 µM (inactive)
GI50 (RPMI-8226): 23.2 µM (inactive)
GI50 (SF-268): 61.7 µM (inactive)
GI50 (SF-295): 80.7 µM (inactive)
GI50 (SN12C): 32.1 µM (inactive)
GI50 (SNB-19): > 100 µM (inactive)
GI50 (TK-10): > 100 µM (inactive)
GI50 (UACC-62): 80.4 µM (inactive)

C/C=C/COC(=O)CO[N+](=O)[O-]
GI50 (DLD-1): > 100 µM (inactive)
GI50 (HCT-15): > 100 µM
GI50 (HL-60): > 100 µM (inactive)
GI50 (HOP-62): > 100 µM (inactive)
GI50 (K562): > 100 µM (inactive)
GI50 (KM12): > 100 µM (inactive)
GI50 (LOX IMVI): > 100 µM (inactive)
GI50 (MOLT-4): > 100 µM (inactive)
GI50 (NCI-H460): > 100 µM (inactive)
GI50 (NCI-H522): > 100 µM (inactive)
GI50 (OVCAR-3): > 100 µM (inactive)
GI50 (RPMI-8226): > 100 µM (inactive)
GI50 (SF-268): > 100 µM (inactive)
GI50 (SF-295): > 100 µM (inactive)
GI50 (SN12C): > 100 µM (inactive)
GI50 (SNB-19): > 100 µM (inactive)
GI50 (TK-10): > 100 µM (inactive)
GI50 (UACC-62): > 10 µM (inactive)

CCCCC(/C=N/NC(=N)N)CC.Cc1cc(O)c(C(C)C)cc1S(=O)(=O)O
GI50 (DLD-1): > 100 µM (inactive)
GI50 (HCT-15): 85.7 µM
GI50 (HL-60): 8.85 µM (inactive)
GI50 (HOP-62): 39.7 µM (inactive)
GI50 (K562): 26.5 µM (inactive)
GI50 (KM12): 52.4 µM (inactive)
GI50 (LOX IMVI): 57.1 µM (inactive)
GI50 (MOLT-4): 36.1 µM (inactive)
GI50 (NCI-H460): 46.6 µM (inactive)
GI50 (NCI-H522): > 100 µM (inactive)
GI50 (OVCAR-3): 37.2 µM (inactive)
GI50 (RPMI-8226): 38.8 µM (inactive)
GI50 (SF-268): > 100 µM (inactive)
GI50 (SF-295): 42.5 µM (inactive)
GI50 (SN12C): 97.5 µM (inactive)
GI50 (SNB-19): 60 µM (inactive)
GI50 (TK-10): 61.7 µM (inactive)
GI50 (UACC-62): 84.1 µM (inactive)

O=C1C(=O)N(C(=O)c2ccc(Cl)c(Cl)c2)c2ccccc21
GI50 (DLD-1): > 100 µM (inactive)
GI50 (HL-60): > 100 µM (inactive)
GI50 (K562): > 100 µM (inactive)
GI50 (KM12): > 100 µM (inactive)
GI50 (LOX IMVI): > 100 µM (inactive)
GI50 (MOLT-4): > 100 µM (inactive)
GI50 (OVCAR-3): > 100 µM (inactive)
GI50 (RPMI-8226): > 100 µM (inactive)
GI50 (SF-268): > 100 µM (inactive)
GI50 (SF-295): > 100 µM (inactive)
GI50 (SNB-19): > 100 µM (inactive)
GI50 (TK-10): > 100 µM (inactive)
GI50 (UACC-62): > 100 µM (inactive)

Clc1ccc(C2N3CCCCC3[C@@H]3c4[nH]c5ccccc5c4CCN23)cc1 (stereo partly specified)
GI50 (A498): 94.4 µM (inactive)
GI50 (DLD-1): 56.8 µM (inactive)
GI50 (HCT-15): 53 µM
GI50 (HL-60): 24.9 µM (inactive)
GI50 (HOP-62): > 100 µM (inactive)
GI50 (K562): 38 µM (inactive)
GI50 (MOLT-4): 64.7 µM (inactive)
GI50 (NCI-H460): 61.8 µM (inactive)
GI50 (OVCAR-3): 50.5 µM (inactive)
GI50 (RPMI-8226): 90.2 µM (inactive)
GI50 (SF-268): 57.9 µM (inactive)
GI50 (SF-295): 67.1 µM (inactive)
GI50 (SN12C): 24.1 µM (inactive)
GI50 (SNB-19): 93.3 µM (inactive)
GI50 (TK-10): > 100 µM (inactive)
GI50 (UACC-62): 50.6 µM (inactive)

O=C(Nc1ccc(Cl)cc1Cl)C1C(=O)OC2(CCCCC2)OC1=O
GI50 (A498): 12.8 µM (inactive)
GI50 (HCT-15): 14.6 µM
GI50 (HL-60): 5.16 µM (inactive)
GI50 (HOP-62): 4.38 µM (inactive)
GI50 (K562): 4.72 µM (inactive)
GI50 (KM12): 6.43 µM (inactive)
GI50 (LOX IMVI): 6.22 µM (inactive)
GI50 (MOLT-4): 5.15 µM (inactive)
GI50 (NCI-H460): 8.99 µM (inactive)
GI50 (NCI-H522): 12 µM (inactive)
GI50 (NCI/ADR-RES): 4.93 µM (inactive)
GI50 (OVCAR-3): 3.18 µM (inactive)
GI50 (RPMI-8226): 4.16 µM (inactive)
GI50 (SF-268): 14.6 µM (inactive)
GI50 (SF-295): 2.92 µM (inactive)
GI50 (SN12C): 14.7 µM (inactive)
GI50 (SNB-19): 5.26 µM (inactive)
GI50 (TK-10): 14.1 µM (inactive)
GI50 (UACC-62): 11 µM (inactive)

COc1ccc2cc(CNCCOCCOCCNCc3ccc4cc(OC)ccc4c3)ccc2c1
GI50 (A498): 1.68 µM (inactive)
GI50 (HCT-15): 0.527 µM
GI50 (HL-60): 0.216 µM (active)
GI50 (HOP-62): 1.69 µM (inactive)
GI50 (K562): 0.118 µM (active)
GI50 (KM12): 0.881 µM (active)
GI50 (LOX IMVI): 0.467 µM (active)
GI50 (MOLT-4): 0.402 µM (active)
GI50 (NCI-H460): 0.655 µM (active)
GI50 (NCI-H522): 1.54 µM (inactive)
GI50 (NCI/ADR-RES): 1.48 µM (inactive)
GI50 (OVCAR-3): 1.73 µM (inactive)
GI50 (RPMI-8226): 0.209 µM (active)
GI50 (SF-268): 1.42 µM (inactive)
GI50 (SF-295): 1.17 µM (inactive)
GI50 (SN12C): 1.72 µM (inactive)
GI50 (SNB-19): 1.49 µM (inactive)
GI50 (TK-10): 1.54 µM (inactive)
GI50 (UACC-62): 1.78 µM (inactive)

CCCCCC(=O)Nc1[nH]cnc1C(N)=O
GI50 (A498): > 100 µM (inactive)
GI50 (HCT-15): > 100 µM
GI50 (HL-60): > 100 µM (inactive)
GI50 (HOP-62): > 100 µM (inactive)
GI50 (K562): > 100 µM (inactive)
GI50 (KM12): > 100 µM (inactive)
GI50 (LOX IMVI): > 100 µM (inactive)
GI50 (MOLT-4): > 100 µM (inactive)
GI50 (NCI-H460): > 100 µM (inactive)
GI50 (NCI-H522): > 100 µM (inactive)
GI50 (NCI/ADR-RES): > 100 µM (inactive)
GI50 (OVCAR-3): > 100 µM (inactive)
GI50 (RPMI-8226): > 100 µM (inactive)
GI50 (SF-268): > 100 µM (inactive)
GI50 (SF-295): > 100 µM (inactive)
GI50 (SN12C): > 100 µM (inactive)
GI50 (SNB-19): > 100 µM (inactive)
GI50 (TK-10): > 100 µM (inactive)
GI50 (UACC-62): > 100 µM (inactive)
